Earlier results as cited in publication PMC8619046, “ABCB1 and ABCG2 Control Brain Accumulation and Intestinal Disposition of the Novel ROS1/TRK/ALK Inhibitor Repotrectinib, While OATP1A/1B, ABCG2, and CYP3A Limit Its Oral Availability” (Pharmaceutics, 2021).

Conditions: cited from earlier work; for brain-to-plasma ratio: wild-type mice; for fold increase of brain-to-plasma ratio: combined genetic knockout of Abcb1 and Abcg2, mice

## C[C@@H](Oc1cc(-c2cnn(C3CCNCC3)c2)cnc1N)c1c(Cl)ccc(F)c1Cl [crizotinib]
mouse, in vivo
  fold enhancement of brain-to-plasma ratio: ~ 15 fold
  brain-to-plasma ratio: about 0.2

## C[C@H]1Oc2cc(cnc2N)-c2c(nn(C)c2C#N)CN(C)C(=O)c2ccc(F)cc21 [lorlatinib]
  fold increase of brain-to-plasma ratio: 4 fold
  brain-to-plasma ratio: 0.4

## C[C@@H]1CCc2ncc(F)cc2[C@H]2CCCN2c2ccn3ncc(c3n2)C(=O)N1 [selitrectinib]
  fold increase of brain-to-plasma ratio: 6 fold
  brain-to-plasma ratio: 0.03
